The numbers were not newly measured in patent US7858126B2 (Trinity Laboratories Inc., priority 2006, dated 2010), which cites them from elsewhere.

The subject of data set [1] is ornithine decarboxylase (ODC). The following applies: mice.
A further data set concerns skin papillomas. The following applies: mice, DMBA-initiated, TPA-promoted.

On to santalol, for which the “decrease of TPA-induced ODC activity” value in data set [1] is 70%. In addition, in the data set on skin papillomas, the “decrease of papilloma incidence” value was 67% and the “decrease of papilloma multiplicity” value was 96%.
